Reference: US20160270428A1 (priority 2015, published 2016)

system: Bacillus amyloliquefaciens LN; assay type: cell-based

Molecule | Zone diameter of LN | sensitivity of LN strain to the antibiotic according to CLSI
CO[C@@]1(NC(=O)Cc2cccs2)C(=O)N2C(C(=O)O)=C(COC(N)=O)CS[C@@H]21 [Cefoxitin] | 27.6 ± 1.5 mm | 
NC[C@H]1O[C@H](O[C@H]2[C@H](O)[C@@H](O[C@H]3O[C@H](CO)[C@@H](O)[C@H](N)[C@H]3O)[C@H](N)C[C@@H]2N)[C@H](O)[C@@H](O)[C@@H]1O [Kanamycin] | 34.0 ± 0.4 mm | 
NC[C@H]1O[C@H](O[C@H]2[C@H](O)[C@@H](O[C@H]3O[C@H](CO)[C@@H](O)[C@H](N)[C@H]3O)[C@H](N)C[C@@H]2N)[C@H](N)C[C@@H]1O [Tobramycin] | 22.4 ± 1.8 mm | 
CC1(C)S[C@@H]2[C@H](NC(=O)[C@H](N)c3ccccc3)C(=O)N2[C@H]1C(=O)O [Ampicillin] | 16.2 ± 1.0 mm | no antibiotics sensitivity and resistance
Cn1nnnc1SCC1=C(C(=O)O)N2C(=O)[C@@H](NC(=O)[C@H](O)c3ccccc3)[C@H]2SC1 [Cefamandol] | 38.2 ± 7.1 mm | 
O=C1CN(/N=C/c2ccc([N+](=O)[O-])o2)C(=O)N1 [Nitrofurantoin] | 17.3 ± 0.6 mm | 
CC[C@H]1OC(=O)[C@H](C)[C@@H](O[C@H]2C[C@@](C)(OC)[C@@H](O)[C@H](C)O2)[C@H](C)[C@@H](O[C@@H]2O[C@H](C)C[C@H](N(C)C)[C@H]2O)[C@](C)(O)C[C@@H](C)C(=O)[C@H](C)[C@@H](O)[C@]1(C)O [Erythromycin] | 24.5 ± 1.5 mm | 
[H]/N=C(/N)N[C@H]1[C@H](O)[C@@H](O)[C@H](O[C@@H]2O[C@@H](C)[C@](O)(C=O)[C@H]2O[C@@H]2O[C@@H](CO)[C@H](O)[C@@H](O)[C@@H]2NC)[C@@H](N/C(N)=N\[H])[C@@H]1O [Streptomycin] | 14.3 ± 0.5 mm | no antibiotics sensitivity and resistance
NCC[C@H](O)C(=O)N[C@@H]1C[C@H](N)[C@@H](O[C@H]2O[C@H](CN)[C@@H](O)[C@H](O)[C@H]2O)[C@H](O)[C@H]1O[C@H]1O[C@H](CO)[C@@H](O)[C@H](N)[C@H]1O [Amikacin] | 23.0 ± 0.8 mm | 
CN(C)[C@@H]1C(O)=C(C(N)=O)C(=O)[C@@]2(O)C(O)=C3C(=O)c4c(O)cccc4[C@@](C)(O)[C@H]3C[C@@H]12 [Tetracycline] | 15.3 ± 1.1 mm | 
CC(=O)OCC1=C(C(=O)O)N2C(=O)[C@@H](NC(=O)Cc3cccs3)[C@H]2SC1 [Cephalothin] | 36.8 ± 1.7 mm | 
Cc1onc(-c2ccccc2)c1C(=O)N[C@@H]1C(=O)N2[C@@H]1SC(C)(C)[C@@H]2C(=O)O [Oxacillin] | 14.3 ± 0.6 mm | 
CN[C@H](CC(C)C)C(=O)N[C@H]1C(=O)N[C@@H](CC(N)=O)C(=O)N[C@H]2C(=O)N[C@H]3C(=O)N[C@H](C(=O)N[C@H](C(=O)O)c4cc(O)cc(O)c4-c4cc3ccc4O)[C@H](O)c3ccc(c(Cl)c3)Oc3cc2cc(c3O[C@@H]2O[C@H](CO)[C@@H](O)[C@H](O)[C@H]2O[C@H]2C[C@](C)(N)[C@H](O)[C@H](C)O2)Oc2ccc(cc2Cl)[C@H]1O [Vancomycin] | 19.0 ± 0.8 mm | 
Gentamicin | 35.0 ± 9.6 mm | 
O=C(N[C@H](CO)[C@H](O)c1ccc([N+](=O)[O-])cc1)C(Cl)Cl [Chloramphenicol] | 30.7 ± 5.9 mm | 
Neomycin | 20.9 ± 2.3 mm | 
C[C@@H](O)[C@H]1C(=O)N2C(C(=O)O)=C(SCCN=CN)C[C@H]12 [Imipeneem] | 29.5 ± 0.2 mm | 
Cefoxime | 28.7 ± 7.0 mm | 
CCn1cc(C(=O)O)c(=O)c2cc(F)c(N3CCNCC3)cc21 [Norfloxacin] | 24.7 ± 0.8 mm | 
